{"source": "ChEMBL document CHEMBL1240318", "about": "“Developing a new resource for drug discovery: marine actinomycete bacteria” (2006)", "assay_type_in_all_cases": "functional", "key": {"Enterococcus faecium": {"system": "Enterococcus faecium", "experiment": "Antimicrobial activity against vancomycin-resistant Enterococcus faecium assessed as growth inhibition"}, "Staphylococcus aureus": {"system": "Staphylococcus aureus", "experiment": "Antimicrobial activity against methicillin-resistant Staphylococcus aureus assessed as growth inhibition"}, "SK-MEL-5": {"system": "SK-MEL-5", "experiment": "Antitumor activity against human SK-MEL-5 cells", "settings": "read-out: LC50 (the source's name)"}, "Candida albicans": {"system": "Candida albicans", "experiment": "Antimicrobial activity against amphotericin-resistant Candida albicans"}}, "data": [{"smiles": "C\\C1=C/C=C/C=C/C=C/c2cccc(O)c2C(=O)O[C@@H](C[C@@H](C)O)C[C@@H](O)C/C=C/[C@@H](O)C[C@@H](O)CC(C)/C=C/C=C/C=C/C=C/c2cccc(O)c2C(=O)O[C@@H](C[C@@H](C)O)C[C@@H](O)C/C=C/[C@@H](O)C[C@@H](O)C1", "note": "(some centres undefined) [MARINOMYCIN A]", "values": [{"measurement": "MIC", "setting": "Enterococcus faecium", "result": 0.1, "unit": "µM"}, {"measurement": "MIC", "setting": "Staphylococcus aureus", "result": 0.1, "unit": "µM"}, {"measurement": "CC50", "setting": "SK-MEL-5", "result": 5, "unit": "nM"}, {"measurement": "MIC90", "setting": "Candida albicans", "result": 7.8, "unit": "µM"}]}]}
